In US4217271A, “Basic azo dyestuffs containing a n-picolinium alkylene amino phenyl group” (Imperial Chemical Industries Limited, priority 1977, dated 1980):

Test: Solubility in water (grams/100 ml) at 30, 60 and 90° C.
Format: physicochemical
Conditions: for Solubility in water: chloride anion

CCN(CC[n+]1ccc(C)cc1)c1ccc(N=Nc2ccc([N+](=O)[O-])cc2Cl)cc1 [Example 1, 4-nitro-2-chloroaniline N-2-(N'-ethylanilino)-ethyl-4-methylpyridinium chloride]
Solubility in water (30° C.): 2.5 grams/100 ml
Solubility in water (60° C.): 62 grams/100 ml
Solubility in water (90° C.): > 100 grams/100 ml
aqueous solubility compared with Basic Red 18:1 (both dyestuffs having a chloride anion): superior aqueous solubility
